ChEMBL document CHEMBL5303573, “Mapping human microbiome drug metabolism by gut bacteria and their genes” (Nature, 2019)

Tests used:
[1] = The drug is tested on Clostridium sp. strain: fecal isolate for biotransformation. The drug concentrations were measured before and after a 12-h incubation by liquid-chromatography-coupled mass spectrometry (LC–MS); details: 2 µM
[2] = anaerostipes sp., 12 h, 2 µM
Description: The drug is tested on Anaerostipes sp. strain: fecal isolate for biotransformation. The drug concentrations were measured before and after a 12-h incubation by liquid-chromatography-coupled mass spectrometry (LC–MS)

[3] = akkermansia muciniphila, 12 h, 2 µM
Description: The drug is tested on Akkermansia muciniphila strain: ATCC BAA-835 for biotransformation. The drug concentrations were measured before and after a 12-h incubation by liquid-chromatography-coupled mass spectrometry (LC–MS)

[4] = The drug is tested on Providencia rettgeri strain: DSM1131 for biotransformation. The drug concentrations were measured before and after a 12-h incubation by liquid-chromatography-coupled mass spectrometry (LC–MS); format: ADME; parameters: dose 2 uM, timepoint 0 vs 12 hours; details: 2 µM
[5] = bacteroides fragilis, 12 h, 2 µM
Description: The drug is tested on Bacteroides fragilis strain: 3397 (T10) for biotransformation. The drug concentrations were measured before and after a 12-h incubation by liquid-chromatography-coupled mass spectrometry (LC–MS)

[6] = The drug is tested on Blautia luti strain: DSM14534 for biotransformation. The drug concentrations were measured before and after a 12-h incubation by liquid-chromatography-coupled mass spectrometry (LC–MS); format: ADME; parameters: dose 2 uM, timepoint 0 vs 12 hours; details: 2 µM
[7] = The drug is tested on Bacteroides caccae strain: ATCC43185 for biotransformation. The drug concentrations were measured before and after a 12-h incubation by liquid-chromatography-coupled mass spectrometry (LC–MS); details: 2 µM
[8] = The drug is tested on Collinsella intestinalis strain: DSM13280 for biotransformation. The drug concentrations were measured before and after a 12-h incubation by liquid-chromatography-coupled mass spectrometry (LC–MS); details: 2 µM
[9] = The drug is tested on Clostridium sporogenes strain: ATCC15579 for biotransformation. The drug concentrations were measured before and after a 12-h incubation by liquid-chromatography-coupled mass spectrometry (LC–MS); details: 2 µM
[10] = The drug is tested on Providencia stuartii strain: ATCC25827 for biotransformation. The drug concentrations were measured before and after a 12-h incubation by liquid-chromatography-coupled mass spectrometry (LC–MS); details: 2 µM
[11] = The drug is tested on Bacteroides fragilis strain: HMW610 for biotransformation. The drug concentrations were measured before and after a 12-h incubation by liquid-chromatography-coupled mass spectrometry (LC–MS); details: 2 µM
[12] = parabacteroides johnsonii, 12 h, 2 µM
Description: The drug is tested on Parabacteroides johnsonii strain: DSM18315 for biotransformation. The drug concentrations were measured before and after a 12-h incubation by liquid-chromatography-coupled mass spectrometry (LC–MS)

[13] = bacteroides fragilis, 12 h, 2 µM; remark: listed apart in the source
Description: The drug is tested on Bacteroides fragilis strain: NCTC 9343 for biotransformation. The drug concentrations were measured before and after a 12-h incubation by liquid-chromatography-coupled mass spectrometry (LC–MS)

[14] = bacteroides thetaiotaomicron, 12 h, 2 µM
Description: The drug is tested on Bacteroides thetaiotaomicron strain: 3731 for biotransformation. The drug concentrations were measured before and after a 12-h incubation by liquid-chromatography-coupled mass spectrometry (LC–MS)

[15] = segatella copri, 12 h, 2 µM
Description: The drug is tested on Prevotella copri strain: DSM18205 for biotransformation. The drug concentrations were measured before and after a 12-h incubation by liquid-chromatography-coupled mass spectrometry (LC–MS)

[16] = The drug is tested on Ruminococcus torques strain: ATCC27756 for biotransformation. The drug concentrations were measured before and after a 12-h incubation by liquid-chromatography-coupled mass spectrometry (LC–MS); format: ADME; parameters: dose 2 uM, timepoint 0 vs 12 hours; details: 2 µM
[17] = The drug is tested on Clostridium symbiosum strain: ATCC14940 for biotransformation. The drug concentrations were measured before and after a 12-h incubation by liquid-chromatography-coupled mass spectrometry (LC–MS); details: 2 µM
[18] = The drug is tested on Subdoligranulum variabile strain: DSM15176 for biotransformation. The drug concentrations were measured before and after a 12-h incubation by liquid-chromatography-coupled mass spectrometry (LC–MS); details: 2 µM
[19] = The drug is tested on Dorea formicigenerans strain: ATCC27755 for biotransformation. The drug concentrations were measured before and after a 12-h incubation by liquid-chromatography-coupled mass spectrometry (LC–MS); details: 2 µM
[20] = The drug is tested on Edwardsiella tarda strain: ATCC23685 for biotransformation. The drug concentrations were measured before and after a 12-h incubation by liquid-chromatography-coupled mass spectrometry (LC–MS); details: 2 µM

| Compound | Bacterial Biotransformation [1] | Bacterial Biotransformation [2] | Bacterial Biotransformation [3] | Bacterial Biotransformation [4] | Bacterial Biotransformation [5] | Bacterial Biotransformation [6] | Bacterial Biotransformation [7] | Bacterial Biotransformation [8] | Bacterial Biotransformation [9] | Bacterial Biotransformation [10] | Bacterial Biotransformation [11] | Bacterial Biotransformation [12] | Bacterial Biotransformation [13] | Bacterial Biotransformation [14] | Bacterial Biotransformation [15] | Bacterial Biotransformation [16] | Bacterial Biotransformation [17] | Bacterial Biotransformation [18] | Bacterial Biotransformation [19] | Bacterial Biotransformation [20] |
| --- | --- | --- | --- | --- | --- | --- | --- | --- | --- | --- | --- | --- | --- | --- | --- | --- | --- | --- | --- | --- |
| CC(C)C[C@H]1C(=O)N2CCC[C@H]2[C@]2(O)O[C@](NC(=O)[C@@H]3C=C4c5cccc6[nH]c(Br)c(c56)C[C@H]4N(C)C3)(C(C)C)C(=O)N12.CS(=O)(=O)O [BROMOCRIPTINE MESYLATE] | Compound metabolized | Compound metabolized | Compound metabolized | Compound metabolized | Compound metabolized | Compound metabolized | Compound metabolized | Compound metabolized | Compound metabolized | Compound metabolized | Compound metabolized | Compound metabolized | Compound metabolized | Compound metabolized | Compound metabolized | Compound metabolized | Compound metabolized | Compound metabolized | Compound metabolized | Compound metabolized |
| CC[C@@H](CO)NC(=O)[C@@H]1C=C2c3cccc4c3c(cn4C)C[C@H]2N(C)C1.O=C(O)/C=C\C(=O)O [METHYSERGIDE MALEATE] | Compound metabolized | Compound metabolized | Compound metabolized | Compound metabolized | Compound metabolized | Compound metabolized | Compound metabolized | Compound NOT metabolized | Compound metabolized | Compound metabolized | Compound NOT metabolized | Compound metabolized | Compound metabolized | Compound metabolized | Compound metabolized | Compound metabolized | Compound metabolized | Compound metabolized | Compound metabolized | Compound metabolized |
| CC(=O)Oc1ccc(C(c2ccc(OC(C)=O)cc2)c2ccccn2)cc1 [BISACODYL] | Compound metabolized | Compound metabolized | Compound metabolized | Compound metabolized | Compound metabolized | Compound metabolized | Compound metabolized | Compound metabolized | Compound metabolized | Compound metabolized | Compound metabolized | Compound metabolized | Compound metabolized | Compound metabolized | Compound metabolized | Compound metabolized | Compound metabolized | Compound metabolized | Compound metabolized | Compound metabolized |
| COc1ccc2[nH]c([S+]([O-])Cc3ncc(C)c(OC)c3C)nc2c1 (stereo not given) [OMEPRAZOLE] | Compound metabolized | Compound metabolized | Compound metabolized | Compound metabolized | Compound metabolized | Compound metabolized | Compound metabolized | Compound metabolized | Compound metabolized | Compound metabolized | Compound metabolized | Compound metabolized | Compound metabolized | Compound metabolized | Compound metabolized | Compound metabolized | Compound metabolized | Compound metabolized | Compound metabolized | Compound metabolized |
